| SMILES | melting point [°C] |
| --- | --- |
| Nc1ccc(S(=O)(=O)N2CCOCC2)cc1N | 169 to 171 |
| CC(=O)Oc1ccc(C(=O)Nc2ccccc2)cc1 | 161 to 163 |
| CCCCn1c(N)c(NCC)c(=O)[nH]c1=O | 285 to 286 |
| O=C(O)c1nc(-n2cnc3ccccc32)ccc1Cl | 192 to 194 |
| Cc1cc(C(=O)CCl)c(C)n1-c1ccc(C(F)(F)F)cc1 | 115 to 117 |
| COc1ncc(Br)cn1 | 55 to 60 |
| CSc1ccc(Cl)nn1 | 104 to 106 |
| Sc1ccc(Sc2ccc(S)cc2)cc1 | 112 to 114 |
| OCc1noc(-c2ccc(F)cc2)n1 | 96 to 98 |
| Cc1cnn([N+](=O)[O-])c1 | 41 to 43 |
| COc1cc2ncc(O)nc2cc1OC | 266 to 268 |
| CCNc1nc(C(=O)O)cs1 | 215 to 217 |
| CCc1cccc2c(C3=CCNCC3)c[nH]c12 | 190 to 192 |
| CC(C)(C)c1ccc(C(=O)N2CSCC2C(=O)O)cc1 (stereo not drawn) | 180 to 182 |
| Nc1cc(=O)[nH]c(=O)n1Cc1ccccc1 | 284 to 286 |
| NC(=O)C(N)c1cccc(Br)c1 (stereo not drawn) | 107 to 109 |
| CC(N)c1ccc(-c2cccnc2)cc1 (stereo not drawn) | 47 to 49 |
| O=C(c1cc2ccccc2o1)C1CC1 | 63 to 65 |
| CC(O)c1ncc(Cl)n1C (stereo not drawn) | 113 to 115 |
| O=C(O)c1cc2c(F)cccc2[nH]1 | 209 to 211 |
| COc1ccc(CNc2nccs2)c(OC)c1 | 112 to 114 |
| Cc1cc(F)c(C(=O)CCl)cc1F | 93 to 95 |
| CSc1ccc(OCCCl)cc1 | 63 to 65 |
| O=C(O)C1CCc2c(Cl)cccc21 (stereo not drawn) | 111 to 113 |
| COC(=O)c1ccccc1CC(=O)O | 139 to 141 |

| SMILES | melting point [°C] |
| --- | --- |
| CN1CCN(c2ccc(F)cc2N)CC1 | 126 to 128 |
| NCC1(O)CCS(=O)(=O)CC1 | 175 to 177 |
| Nc1ccc(Oc2ccnc3ccccc23)c(F)c1 | 158 to 160 |
| O=S(=O)(Cl)c1c[nH]c2nccc(Br)c12 | 177 to 179 |
| NNc1ncccn1 | 90 to 92 |
| Cc1c(CC#N)cccc1[N+](=O)[O-] | 79 to 81 |
| CC(C)c1noc(-c2ccc(Br)cc2)n1 | 29 to 31 |
| OC1CCCCc2ccccc21 (stereo not drawn) | 101 to 103 |
| CC(C)(O)c1cnc(Cl)nc1 | 98 to 100 |
| Nc1cc2c(c(C(=O)O)c1)OCCO2 | 213 to 215 |
| COC(=O)c1oc(Br)cc1C | 62 to 64 |
| Cc1nn(C)c(C)c1CC(C)C(=O)O (stereo not drawn) | 125 to 127 |
| Cc1c(C(=O)O)nnn1-c1cccc([N+](=O)[O-])c1 | 169 to 171 |
| O=C(NCc1ccccc1)c1cc(Cl)ccn1 | 66 to 68 |
| ClC(Cl)c1nnc(-c2ccccc2)o1 | 82 to 84 |
| Cc1cc(S(=O)(=O)Nc2ccccc2C(=O)O)ccc1F | 65 to 68 |
| O=S(=O)(c1ccccc1)N1C2Cc3ccccc3C21 (stereo not drawn) | 120 to 122 |
| CC(C)(C(=O)O)c1cccs1 | 78 to 80 |
| Brc1cnc2ncnn2c1 | 184 to 186 |
| O=C(O)c1ccc(S(=O)(=O)Nc2ccccc2F)cc1 | 266 to 268 |
| O=C(CBr)c1ccc2c(c1)Cc1ccccc1-2 | 141 to 143 |
| O=c1oc2ccccc2n1CCO | 104 to 106 |
| O=C(O)CCc1ncc(-c2ccc(F)cc2)o1 | 144 to 146 |
| Cc1ccc(C#N)c(=O)n1C | 129 to 131 |
| Nc1ccc2c(ccn2CCN2CCOCC2)c1 | 102 to 104 |

| SMILES | melting point [°C] |
| --- | --- |
| COc1cc(S(=O)(=O)Cl)cc(C(=O)O)c1OC | 159 to 161 |
| N#CC(N)c1ccc(OCc2ccccc2)cc1 (stereo not drawn) | 111 to 113 |
| CCNC(=O)c1cc(Cl)ccn1 | 60 to 62 |
| CC(=O)Nc1ccc(S(=O)(=O)N2CCC(=O)CC2)cc1 | 145 to 147 |
| N#Cc1cnn(CCO)c1N | 156 to 158 |
| O=[N+]([O-])c1cc(Cl)cnc1Br | 75 to 77 |
| Nc1c(Br)ccc(Br)c1C(=O)O | 145 to 147 |
| Nc1cccc(-c2nc(C3CC3)n[nH]2)c1 | 154 to 156 |
| Ic1ccccc1-c1nn[nH]n1 | 217 to 219 |
| Cc1nnc(NCC2CC2)c2ccccc12 | 89 to 91 |
| CC1(c2cccc(N)c2)NC(=O)NC1=O (stereo not drawn) | 78 to 80 |
| Nc1nc2cc(Cl)cc(Br)c2o1 | 228 to 230 |
| CC(=O)CC(=O)Nc1cccc(Cl)c1 | 105 to 107 |
| CC(C)(C)OC(=O)Nc1ccccc1C(=O)O | 154 to 156 |
| CC(=O)c1ccccc1NC(=O)CCCCl | 55 to 57 |
| Nc1nnc(SCc2cccs2)s1 | 141 to 143 |
| O=C(O)CNS(=O)(=O)c1ccc(Cl)s1 | 142 to 144 |
| Cc1ccc2c(CCC(=O)O)c[nH]c2c1 | 127 to 129 |
| Cc1cc(C(=O)CCl)c(C)n1-c1ccc2c(c1)OCCO2 | 99 to 103 |
| N#Cc1ccc2cc(C(=O)O)ccc2c1 | 279 to 281 |
| O=Cc1cnc(Cl)nc1 | 118 to 120 |
| CN(CCCC(=O)O)S(=O)(=O)c1ccc(F)cc1 | 74 to 76 |
| NNC(=O)c1c[nH]c2ccccc12 | 229 to 231 |

From a melting point compilation (Tetko et al.)
